Test results published in patent EP0816362A1, “THIAZOLE DERIVATIVES” (TAISHO PHARMACEUTICAL CO. LTD, priority 1995, dated 1996).

Biological target: T1, human D4.2 receptor (Homo sapiens, UniProt P21917, DEL265-296)
T1 sequence (P21917 with tags, fused parts or gaps DEL265-296): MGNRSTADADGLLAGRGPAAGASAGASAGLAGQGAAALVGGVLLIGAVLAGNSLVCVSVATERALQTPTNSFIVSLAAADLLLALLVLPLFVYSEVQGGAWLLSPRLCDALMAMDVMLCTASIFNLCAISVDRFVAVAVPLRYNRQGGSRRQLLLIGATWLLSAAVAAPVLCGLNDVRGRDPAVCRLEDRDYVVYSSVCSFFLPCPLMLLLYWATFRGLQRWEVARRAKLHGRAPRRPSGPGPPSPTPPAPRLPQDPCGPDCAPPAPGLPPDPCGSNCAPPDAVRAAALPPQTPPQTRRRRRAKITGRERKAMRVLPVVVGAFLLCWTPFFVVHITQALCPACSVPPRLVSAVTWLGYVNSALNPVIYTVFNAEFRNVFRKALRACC
Assay: Dopamine D4 receptor binding experiment ([3H]-spiperone)
Settings: CHO cell membranes expressing human D4.2 receptor, [3H]-spiperone (0.5 nM), 27°C, 2 hours
Experimental: As a receptor preparation, Chinese hamster ovary (CHO) cell membranes where human D4.2 receptor was expressed were used.
As [^3H]-labeled ligand, [^3H]-spiperone was used.
Human D4.2 receptor binding test: CHO cell membranes where human D4.2 receptor was expressed, [^3H]-spiperone (0.5 nM) and a test drug were reacted at 27°C for 2 hours in 50 mM Tris-HCl buffer, pH 7.4 containing 5 mM EDTA, 1.5 mM calcium chloride, 5 mM potassium chloride and 120 mM sodium chloride.
After the reaction, the sample was filtered under suction through a glass filter (GF/B), and the radioactivity of the filter paper was determined in a liquid scintillation spectrometer.
The binding of [^3H]-spiperone in the presence of 10 µM haloperidol was assumed to be non-specific binding, and the difference between the total binding and the non-specific binding was assumed to be specific binding.

SMILES | IC50 [nM]
Cc1nc(-c2ccc(F)cc2)c(CCN2CCC(C(=O)c3ccc(F)cc3F)CC2)s1 [Compound K-23] | 11.5
Nc1nc(-c2ccc(F)cc2)c(C2CCN(CCCc3nsc4ccccc34)C2)s1 (stereo not drawn) [Compound E-10] | 13.9
Nc1nc(-c2cccc(F)c2)c(C2CCN(CCCC(=O)c3ccc(F)cc3)C2)s1 (racemic) [Compound D-09] | 32
Nc1nc(-c2ccc(F)cc2)c(C2CCN(CCCc3noc4cc(F)ccc34)C2)s1 (single isomer, unassigned) [Compound F-07] | 11.8
Cc1nc(-c2ccc(Br)cc2)c(CCN2CCC(C(=O)c3ccc(F)cc3)CC2)s1 [Compound K-27] | 4.98
Nc1nc(-c2ccc(F)cc2)c(C2CCN(CCC=Cc3ccc(F)cc3)C2)s1 (stereo not drawn) [Compound C-02] | 81.1
Nc1nc(-c2ccc(F)cc2)c(CCN2CCC(C(=O)c3ccc(Br)cc3)CC2)s1 [Compound K-15] | 35.1
Cc1nc(-c2ccc(F)cc2)c(CCN2CCC(C(=O)c3ccc(F)cc3)CC2)s1 [Compound K-19] | 8.7
Nc1nc(-c2ccc(F)cc2)c(C2CCN(CCCc3nsc4cc(F)ccc34)C2)s1 (stereo not drawn) [Compound E-11, 2-amino-4-(4-fluorophenyl)-5-[1-[3-(6-fluoro-1,2-benzisothiazol-3-yl)propyl]pyrrolidin-3-yl]thiazole] | 7.22
Nc1nc(-c2ccc(F)cc2)c(C2CCN(CCCN3C(=O)CCc4cc(F)ccc43)C2)s1 (stereo not drawn) [Compound H-04] | 46.4

Same assay, conditions: inhibition of [3H]-spiperone binding, human D4.2 receptor

SMILES | IC50 [nM]
O=C(c1ccc(F)cc1)C1CCN(CCc2sc(-c3ccccc3)nc2-c2ccc(F)cc2)CC1 [Compound K-35] | 32
CC(=C1CCN(CCc2sc(C)nc2-c2ccc(F)cc2)CC1)c1ccc(F)cc1 [Compound L-31] | 16.7
Cc1ccc(-c2nc(C)sc2CCN2CCC(=Cc3ccc(F)cc3)CC2)cc1 [Compound L-21] | 2.6
COc1ccc(-c2nc(N)sc2CCN2CCC(=Cc3ccc(F)cc3)CC2)cc1 [Compound L-05] | 18.3
COc1ccc(-c2nc(C)sc2CCN2CCC(=Cc3ccc(F)cc3)CC2)cc1 [Compound L-20] | 7.22
COc1ccc(C=C2CCN(CCc3sc(C)nc3-c3ccc(F)cc3)CC2)cc1 [Compound L-26] | 16.7
Nc1nc(-c2ccc(F)cc2)c(CCN2CCC(=Cc3ccc(F)cc3)CC2)s1 [Compound L-01] | 2.85
Nc1nc(-c2ccccc2)c(CCN2CCC(=Cc3ccc(F)cc3)CC2)s1 [Compound L-07] | 22.1
Nc1nc(-c2ccc(Br)cc2)c(CCN2CCC(=Cc3ccc(F)cc3)CC2)s1 [Compound L-04] | 13.9

System: not given
Assay: not given
Settings: Summary and Clinical Data, Sandoz, Canada Inc. (1990); a case of death also reported; cited from earlier work

SMILES | blood disorder
CN1CCN(C2=Nc3cc(Cl)ccc3Nc3ccccc32)CC1 [clozapine] | agranulocytosis

Same assay, conditions: clinical experiments, compared with dopamine D2 receptor antagonist; cited from earlier work

SMILES | extrapyramidal disorder
CN1CCN(C2=Nc3cc(Cl)ccc3Nc3ccccc32)CC1 [clozapine] | less extrapyramidal disorder
